# Target: phosphorylated active hERK2 enzyme (Homo sapiens (Human), UniProt P28482)
# Conditions: not given
# phosphorylated active hERK2 enzyme, sequence (P28482 whole entry): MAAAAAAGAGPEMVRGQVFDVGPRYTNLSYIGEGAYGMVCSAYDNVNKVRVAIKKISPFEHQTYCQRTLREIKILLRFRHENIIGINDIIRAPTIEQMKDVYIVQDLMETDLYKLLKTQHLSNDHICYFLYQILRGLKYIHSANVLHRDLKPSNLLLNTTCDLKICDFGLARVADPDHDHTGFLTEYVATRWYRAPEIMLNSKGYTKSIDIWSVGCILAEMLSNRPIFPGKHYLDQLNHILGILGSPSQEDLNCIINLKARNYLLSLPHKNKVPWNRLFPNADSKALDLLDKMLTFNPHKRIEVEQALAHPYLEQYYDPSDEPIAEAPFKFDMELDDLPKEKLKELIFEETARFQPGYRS
row,IC50,SMILES
1,23.1 nM,"Cc1cc(-n2ncc3cc(NC(=O)N[C@H]4CCCC[C@H]4Cc4ccccc4)ncc32)ccn1 (racemic) [Example 167, Racemic cis 1-[(1S,2S) and (1R,2R)-2-benzylcyclohexyl]-3-[1-(2-methylpyridin-4-yl)-1H-pyrazolo[3,4-c]pyridin-5-yl)urea]"

# Same assay, conditions: ERK2 IC50, IMAP-FP assay; 0.5 nM hERK2, 30 μM ATP; 10 point titration, 3 μM starting concentration
row,IC50,SMILES
1,3.65 nM,"Cc1cc(-n2ncc3cc(NC(=O)N[C@H]4CCCC[C@@H]4c4ccccc4)ncc32)ccn1 (racemic) [Example 151, Racemic trans 1-[1-(2-methylpyridin-4-yl)-1H-pyrazolo[3,4-c]pyridin-5-yl]-3-[(1S,2R) and (1R,2S)-2-phenylcyclohexyl]urea]"
2,65.7 nM,"Cc1cc(-n2ncc3cc(NC(=O)N[C@H]4CCCC[C@@H]4c4ccccc4)ncc32)ccn1 (racemic) [Example 169, Racemic trans 1-[1-(2-methylpyridin-4-yl)-1H-pyrazolo[3,4-c]pyridin-5-yl]-3-[(1S,2R) and (1R,2S)-2-phenylcyclohexyl]urea]"

# Same assay, conditions: read-out: ERK2 IC50; IMAP-FP assay; 0.5 nM hERK2, 30 μM ATP; 10 point titration, 3 μM starting concentration
row,SMILES,IC50
1,"Cc1cc(-n2ncc3cc(NC(=O)NC(CCN(C)C)c4ccccn4)ncc32)ccn1 (stereo not shown) [Example 72, 1-[3-(dimethylamino)-1-pyridin-2-ylpropyl]-3-[1-(2-methylpyridin-4-yl)-1H-pyrazolo[3,4-c]pyridin-5-yl]urea]",10.2 nM
2,"Cc1cc(-n2ncc3cc(NC(=O)N[C@H]4CN(C)C[C@@H]4c4cnn(C)c4)ncc32)ccn1 [Example 165, 1-[(3R,4S)-1-methyl-4-(1-methyl-1H-pyrazol-4-yl)pyrrolidin-3-yl]-3-[1-(2-methylpyridin-4-yl)-1H-pyrazolo[3,4-c]pyridin-5-yl)urea]",831 nM
3,"CCO[C@H]1CN(Cc2c(F)cccc2F)C[C@@H]1NC(=O)Nc1cc2cnn(-c3ccnc(C)c3)c2cn1 [Example 278, 1-[(3S,4S)-1-(2,6-difluorobenzyl)-4-ethoxypyrrolidin-3-yl]-3-[1-(2-methylpyridin-4-yl)-1H-pyrazolo[3,4-c]pyridin-5-yl]urea]",45.3 nM
4,"C[C@@H](NC(=O)Nc1cc2cnn(-c3ccc(F)cc3)c2cn1)c1ccccn1 [Example 222, 1-[1-(4-fluorophenyl)-1H-pyrazolo[3,4-c]pyridin-5-yl]-3-[(1R)-1-pyridin-2-ylethyl]urea]",7.53 nM
5,"Cc1cc(-n2ncc3cc(NC(=O)NCc4ccc5c(c4)CNC5=O)ncc32)ccn1 [Example 84, 1-[1-(2-methylpyridin-4-yl)-1H-pyrazolo[3,4-c]pyridin-5-yl]-3-[(1-oxo-2,3-dihydro-1H-isoindol-5-yl)methyl]urea]",17.4 nM
6,"CO[C@@H]1CN(Cc2cccnc2)C[C@H]1NC(=O)Nc1cc2cnn(-c3ccnc(C)c3)c2cn1 [Example 262, 1-((3R,4R)-4-methoxy-1-(pyridin-3-ylmethyl)pyrrolidin-3-yl)-3-(1-(2-methylpyridin-4-yl)-1H-pyrazolo[3,4-c]pyridin-5-yl)urea]",253 nM
7,"Cc1cc(-n2ncc3cc(NC(=O)NC4CCN(Cc5ccccc5C#N)C4)ncc32)ccn1 (stereo not shown) [Example 280, 1-[1-(2-cyanobenzyl)pyrrolidin-3-yl]-3-[1-(2-methylpyridin-4-yl)-1H-pyrazolo[3,4-c]pyridin-5-yl]urea]",4.35 nM
8,"COc1ccc(CNC(=O)Nc2cc3cnn(-c4ccncc4)c3cn2)cc1 [Example 9, 1-(4-methoxybenzyl)-3-(1-pyridin-4-yl-1H-pyrazolo[3,4-c]pyridin-5-yl)urea]",5.3 nM
9,"Cc1cc(-n2ncc3cc(NC(=O)NCC4CNC4)ncc32)ccn1 [Example 263, 1-(azetidin-3-ylmethyl)-3-(1-(2-methylpyridin-4-yl)-1H-pyrazolo[3,4-c]pyridin-5-yl)urea]",102 nM
10,"C[C@@H](NC(=O)Nc1cc2cnn(-c3ccc(F)cc3)c2c(CN2CCOCC2)n1)c1ccccc1 [Example 242, 1-[1-(4-fluorophenyl)-7-(morpholin-4-ylmethyl)-1H-pyrazolo[3,4-c]pyridin-5-yl]-3-[(1R)-1-phenylethyl]urea]",2240 nM
11,"CC(C)(O)[C@@H](NC(=O)Nc1cc2cnn(-c3ccc(F)cc3)c2cn1)c1ccccc1 [Example 296, 1-[1-(4-fluorophenyl)-1H-pyrazolo[3,4-c]pyridin-5-yl]-3-[(1S)-2-hydroxy-2-methyl-1-phenylpropyl]urea]",0.812 nM
12,"CC(C)(C)OC(=O)N1CCc2cnc(-n3ncc4cc(NC(=O)N[C@@H](c5ccc(F)cc5)C(C)(C)O)ncc43)nc2C1 [Example 234, tert-butyl 2-[5-({[(1S)-1-(4-fluorophenyl)-2-hydroxy-2-methylpropyl]carbamoyl}amino)-1H-pyrazolo[3,4-c]pyridin-1-yl]-5,8-dihydropyrido[3,4-d]pyrimidine-7(6H)-carboxylate]",1810 nM
13,"Cc1cc(-n2ncc3cc(NC(=O)NCc4ccc(N5CCCC5=O)cc4)ncc32)ccn1 [Example 91, 1-[1-(2-methylpyridin-4-yl)-1H-pyrazolo[3,4-c]pyridin-5-yl]-3-[4-(2-oxopyrrolidin-1-yl)benzyl]urea]",332 nM
14,"Cc1cc(-n2ncc3cc(NC(=O)NCC(c4ccccc4)N4CCCCC4)ncc32)ccn1 (stereo not shown) [Example 50, 1-[1-(2-methylpyridin-4-yl)-1H-pyrazolo[3,4-c]pyridin-5-yl]-3-(2-phenyl-2-piperidin-1-ylethyl)urea]",198 nM
15,Cc1cc(-n2ncc3cc(NC(=O)NCc4cccc(-n5cccn5)c4)ncc32)ccn1 [Example 75],5.28 nM
16,"C[C@@H](NC(=O)Nc1cc2cnn(-c3cnn(C)c3)c2cn1)c1ccc(F)cc1 [Example 5, 1-[(1R)-1-(4-fluorophenyl)ethyl]-3-[1-(1-methyl-1H-pyrazol-4-yl)-1H-pyrazolo[3,4-c]pyridin-5-yl)urea]",12.2 nM
17,"Cc1cc(-n2ncc3cc(NC(=O)NCC(c4ccc(F)cc4)N4CCCCC4)ncc32)ccn1 (stereo not shown) [Example 54, 1-[2-(4-fluorophenyl)-2-piperidin-1-ylethyl]-3-[1-(2-methylpyridin-4-yl)-1H-pyrazolo[3,4-c]pyridin-5-yl)urea]",195 nM
18,"Cc1cc(-n2ncc3cc(NC(=O)N[C@H](C)c4ccccc4)nc(CN4CCOCC4)c32)ccn1 [Example 245, 1-[1-(2-methylpyridin-4-yl)-7-(morpholin-4-ylmethyl)-1H-pyrazolo[3,4-c]pyridin-5-yl]-3-[(1R)-1-phenylethyl]urea]",832 nM
19,"Cc1cc(-n2ncc3cc(NC(=O)N[C@H]4CN(C)C[C@@H]4c4sccc4C)ncc32)ccn1 [Example 113, 1-[(3R,4S)-1-methyl-4-(3-methylthiophen-2-yl)pyrrolidin-3-yl]-3-[1-(2-methylpyridin-4-yl)-1H-pyrazolo[3,4-c]pyridin-5-yl)urea]",7.11 nM
20,"CCN1CC[C@@H](NC(=O)Nc2cc3cnn(-c4ccnc(C)c4)c3cn2)C1 [Example 28, 1-[(3R)-1-ethylpyrrolidin-3-yl]-3-[1-(2-methylpyridin-4-yl)-1H-pyrazolo[3,4-c]pyridin-5-yl]urea]",104 nM
21,"Cc1cc(-n2ncc3cc(NC(=O)N[C@H](C)c4ccccc4)nc(COCCN4CCOCC4)c32)ccn1 [Example 249, 1-{1-(2-methylpyridin-4-yl)-7-[(2-morpholin-4-ylethoxy)methyl]-1H-pyrazolo[3,4-c]pyridin-5-yl}-3-[(1R)-1-phenylethyl]urea]",127 nM
22,"COC[C@@H](NC(=O)Nc1cc2cnn(C3CCOCC3)c2cn1)c1ccccc1 [Example 259, (S)-1-(2-methoxy-1-phenylethyl)-3-(1-(tetrahydro-2H-pyran-4-yl)-1H-pyrazolo[3,4-c]pyridin-5-yl)urea]",196 nM
23,"Cc1cc(-n2ncc3cc(NC(=O)NCc4cn(C)cn4)ncc32)ccn1 [Example 108, 1-[(1-methyl-1H-imidazol-4-yl)methyl]-3-[1-(2-methylpyridin-4-yl)-1H-pyrazolo[3,4-c]pyridin-5-yl)urea]",284 nM

# The remaining lines, values ahead:
row,IC50,SMILES
1,15.6 nM,"Cc1cc(-n2ncc3cc(NC(=O)N[C@H](C)c4ccccc4Cl)ncc32)ccn1 [Example 44, 1-[(1R)-1-(2-chlorophenyl)ethyl]-3-[1-(2-methylpyridin-4-yl)-1H-pyrazolo[3,4-c]pyridin-5-yl]urea]"
2,0.983 nM,"Cc1cc(-n2ncc3cc(NC(=O)N[C@@H]4CN(C)C[C@H]4c4ccccc4)ncc32)ccn1 [Example 181, 1-((3S,4R)1-methyl-4-phenyl-pyrrolidin-3-yl)-3-[1-(2-methyl-pyridin-4-yl)-1H-pyrazolo[3,4-c]pyridin-5-yl]urea]"
3,174 nM,"Cc1cc(-n2ncc3cc(NC(=O)NC4CC(C)(C)Oc5ccccc54)ncc32)ccn1 (stereo not shown) [Example 46, 1-(2,2-dimethyl-3,4-dihydro-2H-chromen-4-yl)-3-[1-(2-methylpyridin-4-yl)-1H-pyrazolo[3,4-c]pyridin-5-yl]urea]"
4,1.83 nM,"Cc1cc(-n2ncc3cc(NC(=O)N[C@H]4COC[C@@H]4c4ccccc4)ncc32)ccn1 [Example 17, 1-[1-(2-methylpyridin-4-yl)-1H-pyrazolo[3,4-c]pyridin-5-yl]-3-[(3R,4R)-4-phenyltetrahydrofuran-3-yl]urea]"
5,1.01 nM,"Cc1cc(-n2ncc3cc(NC(=O)N[C@H](C)c4ccccc4)ncc32)ccn1 [Example 59, 1-[1-(2-methylpyridin-4-yl)-1H-pyrazolo[3,4-c]pyridin-5-yl]-3-[(1R)-1-phenylethyl]urea]"
6,0.28 nM,"Cc1cc(-n2ncc3cc(NC(=O)N[C@H]4CN(C)C[C@@H]4c4ccccc4C)ncc32)ccn1 [Example 180, 1-[(3R,4S)-1-methyl-4-(2-methylphenyl)pyrrolidin-3-yl]-3-[1-(2-methylpyridin-4-yl)-1H-pyrazolo[3,4-c]pyridin-5-yl]urea]"
7,0.823 nM,"Cc1cc(-n2ncc3cc(NC(=O)NC4CN(C)CC4c4ccccc4)ncc32)ccn1 (stereo not shown) [Example 57, 1-(1-methyl-4-phenylpyrrolidin-3-yl)-3-[1-(2-methylpyridin-4-yl)-1H-pyrazolo[3,4-c]pyridin-5-yl]urea]"
8,1.14 nM,"Cc1cc(-n2ncc3cc(NC(=O)N[C@@H]4CN(C)C(C)(C)[C@H]4c4ccccc4C)ncc32)ccn1 [Example 103, 1-[1-(2-methylpyridin-4-yl)-1H-pyrazolo[3,4-c]pyridin-5-yl]-3-[(3S,4S)-1,5,5-trimethyl-4-(2-methylphenyl)pyrrolidin-3-yl)urea]"

# Source: patent US9884048B2, “ERK inhibitors” (Merck Sharp & Dohme Corp., priority 2014, dated 2018)
